One assay has as its system isolated hepatocytes. Description: Formation of lipid peroxide in isolated hepatocytes after addition of carbon tetrachloride. Type of assay: cell-based, rat. To be noted: Concentration 10 µM, carbon tetrachloride 5 mM; for inhibition at 10 µM: Rattus norvegicus, Hepatocyte, 3 hours, read-out: Free MDA (3 hours) % Inhibition. As for the experimental part:
Lipid peroxide was produced in vitro in cell membranes by using hepatocytes isolated by means of collagenase.
The isolated hepatocytes were prepared by the method of collagenase perfusion from the liver of rat which was fed for one week with phenobarbital in drinking water. The isolated hepatocytes (1 x 10^6 cells/ml Hanks solution containing 1 % BSA and 10 mM HEPES, pH 7.4) were taken into a conical flask in which test compounds were placed. Then, the cells were incubated at 37°C and produced the lipid peroxide by the addition of carbon tetrachloride (5 mM).
The activity of the compounds shown in Table I and vitamin E to inhbit the formation of the lipid peroxide was measured. The amount of the lipid peroxide was determined in accordance with the method of Mihara et al. (Yakugaku Zasshi; Journal of the Pharmaceutical Society of Japan, Vol. 102, No. 7, 670-677 (1982)) and expressed in terms of inhibition rate (%) of the formation of lipid peroxide after the addition of carbon tetrachloride.

The test system of the next assay is rat liver microsome. Description: Formation of lipid peroxide in vitro in rat liver microsome (TBA method). Type of assay: biochemical. How it is done:
Lipid peroxide was produced in vitro by using rat liver microsome. The microsome was prepared in a usual method from rat starved for 24 hours, and the final concentration thereof was adjusted to 15 - 18 mg proteins/ml.
To the thus prepared microsome was added Fe(N03)3, ADP (adenosine diphosphate), NADPH (nicotinamide adenine dinucleotide phosphate), glucose 6-phosphate and glucose 6-phosphate dehydrogenase so that the final concentrations of these additives were 200 uM, 7 mM, 7.5 mM, 20 mM and 2.0 U.I., respectively.
The resultant mixture was incubated at 37°C to produce the lipid peroxide. The activity of compound No. 1 and vitamin E to inhibit the formation of the lipid peroxide was measured. The quantity of the lipid peroxide was determined in accordance with TBA method (thiobarbiturate method, "Biochemical Medicine", Vol. 15, p. 212 (1976)) and expressed in terms of MDA (malon dialdehyde) amount (nmol) in 1 mg of protein.

The next assay has as its system Mast cells. Put plainly: Histamine release from mast cells stimulated with compound 48/80 or ascarid protein. It counts as cell-based, male Wistar rats. The note with it: compound 48/80 and protein from epidermis of ascarid as stimulants. As for the experimental part:
Histamine release can be experimentally investigated in vitro with use of mast cells derived from rat's abdominal cavity. Thus, after the mast cells are pre-incubated in the presence of an IgE antibody, e.g. IgE antibody prepared by sensitization of rabbit with a protein derived from the epidermis of ascarid, addition of a corresponding IgE antigen, e.g. the protein prepared from the epidermis of ascarid, induces the release of histamine from the mast cells. Such release of histamine can also be induced by addition of an artificial stimulant compound 48/80, ATP (adenosine triphosphate) to mast cells.
Mast cells were collected from the abdominal cavity of male Wistar rats of 400 - 450 g in body weight in a conventional manner. After pre-incubation of 5 x 10^4 cells in Krebs-Ringer buffer, pH 7.4, for 10 minutes, 0,1 µg/ml of the compound 48/80 was added. After incubation for an additional 10 minutes, the cells were removed by centrifugation at 3,000 rpm for 5 minutes. Thereafter, histamine in the supernatant was quantitatively measured according to Shore's method described in J. Phar. […] As a control, total amount of histamine contained in mast cell was measured. A ratio of the amount of histamine released after the treatment with the compound 48/80 as a stimulant to the total amount of histamine as the control was calculated according to the following equation : [formula]

Assay [1] concerns rat polymorphonuclear leukocytes (PMN). Description: Production of O2- by polymorphonuclear leukocytes stimulated with PMA (cytochrome C reduction). It counts as cell-based. To be noted: Leukocyte, PMA 125 ng/ml; for inhibition at 3.3 µM: Conc. 3.3 µM; for inhibition at 10 µM: Conc. 10.0 µM; for inhibition at 33 µM: Conc. 33.0 µM. As for the experimental part: In 20 hours after injection of 10 ml of 1 % casein into the abdominal cavity of a […], many polymorphonuclear leukocytes appear in the cavity. An activity of the polymorphonuclear leukocytes can be determined in an in vitro system. Briefly stated, addition of phorbol myristate acetate, PMA, as a stimulant into a test tube containing a buffer and the polymorphonuclear leukocytes induces the production of O2^- by the polymorphonuclear leukocytes. […] See Wei Hsueh et al., Nature, 290 (23), 710-713 (1981).
Thus, measurements were carried out using rat polymorphonuclear leukocytes (PMN) induced by 1 % casein and PMA (phorbol-12-myristate-13-acetate) as a stimulant. First, 1,830 µl of phosphate buffer, pH 7,4, 50 µl of cytochrome C (Cyt C) in BSA, 20 µl of a sample (compound) and 50 µl of PMN were stirred at 37°C. After adding 50 µl of PMA to a final concentration of 125 ng/ml, the change of Cyt C reduction was traced by an absorption at 550 nm. The number of PMN per tube was 2 x 10^6 cells.

The test system of assay [2] is liver of the carbon tetrachloride-treated rat. Description: Lipid peroxide in the liver of carbon tetrachloride-treated rat, oral administration. It counts as in vivo. The note with it: 24 hours after CCl4. How it is done:
The lipid peroxide in the liver of the rat treated with CC14 increases. Carbon tetrachloride of 25 % V/V in olive oil was administered orally to rats by the dose of 2 ml/kg. After 24 hours, the amount of the lipid peroxide in the liver of the carbon tetrachloride-treated rat was increased to approx. 6 times higher than untreated rat. The amount of the lipid peroxide was determined by the method of Mihara et al. as in Example 3 and was expressed in terms of MDA amount (nmol) in 1 g of liver. The activity of compound No. 1 and vitamin E to inhibit the formation of the lipid peroxide was measured. Compound No. 1 was orally administered to the carbon tetrachloride-treated rat in the form of suspension in the surfactant "Tween 80" by the amount of 25, 50 or 100 mg/kg/day nine days before the treatment of carbon tetrachloride.

[3] abbreviates: 10 µM, Incubation Period 10 min.
Setting [4] is: 100 µM, Incubation Period 5 min.
Setting [5] is: 100 µM, Incubation Period 10 min.

As usually defined, the inhibition is the drop in the measured response relative to a control, in per cent. By IC50 is commonly meant the concentration that gives 50% inhibition. A high value points to a need for much substance. Consider `CCOc1c(N)c2c(c(OCC)c1OCC)C(C1c3c(cc4c(c3OC)OCO4)CCN1C)OC2=O` (stereo not drawn) [Compound No. 1, 7-amino-4,5,6-triethoxy-3-(5,6,7,8-tetrahydro-4-methoxy-6-methyl-1,3-dioxolo(4,5-g)isoquinolin-5-yl)phthalide], for which the inhibition at 10 µM worked out at 77.3% in the assay with isolated hepatocytes and 53.9% in assay [1]. Moreover, the “MDA Amount Produced” value was 1.80 ± 0.12 nmol/mg of protein in the assay on rat liver microsome (3.3 µM, Incubation Period 5 min); 2.25 ± 0.21 nmol/mg of protein in the assay with rat liver microsome (3.3 µM, Incubation Period 10 min); 1.71 ± 0.12 nmol/mg of protein in the assay on rat liver microsome (10 µM, Incubation Period 5 min); 1.80 ± 0.06 nmol/mg of protein in the assay on rat liver microsome (setting [3]); 1.50 ± 0.05 nmol/mg of protein in the assay on rat liver microsome (33 µM, Incubation Period 5 min); 1.62 ± 0.02 nmol/mg of protein in the assay on rat liver microsome (33 µM, Incubation Period 10 min). The “MDA Amount Produced” value in the assay with rat liver microsome (setting [4]) is recorded as 1.37 ± 0.02 nmol/mg of protein; with rat liver microsome (setting [5]), 1.37 ± 0.05 nmol/mg of protein; in assay [2] (25 mg/kg oral), 333.0 ± 54.3 nmol/g of liver; in assay [2] (50 mg/kg oral), 328.5 ± 50.8 nmol/g of liver; in assay [2] (100 mg/kg oral), 171.0 ± 23.6 nmol/g of liver. Besides, the “inhibiting activity to the histamine release” value in the assay on Mast cells is “strong inhibiting activity”. In addition, the inhibition at 3.3 µM in assay [1] was 15.4%. Also, the inhibition at 33 µM in assay [1] came out at 58.8%. This molecule came in with an IC50 in assay [1] of 15.9 µM.
As for `COc1ccc2c(c1OC)C(=O)OC2C1c2c(cc3c(c2OC)OCO3)CCN1C` (stereo not drawn) [compound 2], in the assay on isolated hepatocytes, the inhibition at 10 µM stood at 42.4%.
As to `CCOc1c(N)c2c(c(OCC)c1OCC)C(C1c3c(cc(OC)c4c3OCO4)CCN1C)OC2=O` (stereo not drawn) [compound 3], the inhibition at 10 µM with isolated hepatocytes turned out to be 76.9%. In addition, the “inhibiting activity to the histamine release” value in the assay on Mast cells is “strong inhibiting activity”. In assay [1], this molecule returned an inhibition at 3.3 µM of 34.9%, an inhibition at 10 µM of 59.9%, an inhibition at 33 µM of 66.2% and an IC50 of 7.2 µM.
With `CCOc1c(OCC)c2c(c([N+](=O)[O-])c1OCC)C(=O)OC2C1c2c(cc3c(c2OC)OCO3)CCN1C` (stereo not drawn) [compound 4], the inhibition at 10 µM with isolated hepatocytes was 28.6%.
As for Vitamin E [reference compound], the “Free MDA (3 hours) % Inhibition” value in the assay on isolated hepatocytes came out at 13%. The “MDA Amount Produced” value is listed as 2.37 ± 0.21 nmol/mg of protein in the assay with rat liver microsome (setting [3]); 2.06 ± 0.001 nmol/mg of protein in the assay on rat liver microsome (setting [4]); 2.62 ± 0.07 nmol/mg of protein with rat liver microsome (setting [5]); 2.06 ± 0.016 nmol/mg of protein with rat liver microsome (1000 µM, Incubation Period 5 min); 2.29 ± 0.14 nmol/mg of protein in the assay on rat liver microsome (1000 µM, Incubation Period 10 min); 104.0 ± 18.4 nmol/g of liver in assay [2] (50 mg/kg oral).
Consider `CCOc1c(N)c2c(c(OCC)c1OCC)C(C1c3cc(OC)c(OC)cc3CCN1C)OC2=O` (stereo not drawn) [compound 6], for which the inhibition at 10 µM in the assay with isolated hepatocytes worked out at 47.6%. Besides, in assay [1], the inhibition at 3.3 µM came to 0.9%, 10 µM produced 14% inhibition, the inhibition at 33 µM was determined as 41.1% and the IC50 is 45.1 µM.
On the same counts, the results for `CCOc1c(N)c2c(c(OCC)c1OCC)C(C1c3c(cc4c(c3OC)OCO4)CCN1CC)OC2=O` (stereo not drawn) [compound 5, 2-ethyl-6,7-methylenedioxy-8-methoxy-1-(4,5,6-triethxy-7-amino-3-phthalidyl)-1,2,3,4-tetrahydroisoquinoline] are 68.6%, 49.2%, 65.8%, 60.3% and 1.8 µM.
